From ChEMBL document CHEMBL1201862, “PubChem BioAssay data set” (2004)
Values belong to the molecule of their own block, whether it stands above or below them. Active and inactive are the calls of the source.

Legend:
[1] = target: Cytochrome P450 3A4 (Homo sapiens, UniProt P08684);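 note: CYP3A4 tested as one member of a cytochrome P450 panel screen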
[2] = target: Cytochrome P450 2C19 (Homo sapiens, UniProt P33261); test: Cytochrome panel assay with activity outcomes. Panel member name: p450-cyp2c19 Compounds with AC50 equal or less than 10 uM are considered active; assay type: functional; conditions: read-out: AC50
Cytochrome P450 2C19, sequence (P33261 whole entry): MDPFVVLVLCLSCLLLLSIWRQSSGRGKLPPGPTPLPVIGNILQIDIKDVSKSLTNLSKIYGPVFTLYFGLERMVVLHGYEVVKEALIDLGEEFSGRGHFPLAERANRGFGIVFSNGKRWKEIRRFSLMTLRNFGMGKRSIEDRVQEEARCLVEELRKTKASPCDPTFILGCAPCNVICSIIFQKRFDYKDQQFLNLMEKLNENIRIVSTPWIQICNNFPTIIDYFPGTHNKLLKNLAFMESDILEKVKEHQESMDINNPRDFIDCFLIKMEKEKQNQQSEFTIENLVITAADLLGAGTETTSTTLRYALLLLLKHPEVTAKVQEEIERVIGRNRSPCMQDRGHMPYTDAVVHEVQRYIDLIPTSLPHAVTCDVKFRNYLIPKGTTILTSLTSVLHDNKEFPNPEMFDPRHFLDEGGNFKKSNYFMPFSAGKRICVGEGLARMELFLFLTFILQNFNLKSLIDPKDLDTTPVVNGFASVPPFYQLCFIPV

[3] = target: Cytochrome P450 2C9 (Homo sapiens, UniProt P11712)
Cytochrome P450 2C9, sequence (P11712 whole entry): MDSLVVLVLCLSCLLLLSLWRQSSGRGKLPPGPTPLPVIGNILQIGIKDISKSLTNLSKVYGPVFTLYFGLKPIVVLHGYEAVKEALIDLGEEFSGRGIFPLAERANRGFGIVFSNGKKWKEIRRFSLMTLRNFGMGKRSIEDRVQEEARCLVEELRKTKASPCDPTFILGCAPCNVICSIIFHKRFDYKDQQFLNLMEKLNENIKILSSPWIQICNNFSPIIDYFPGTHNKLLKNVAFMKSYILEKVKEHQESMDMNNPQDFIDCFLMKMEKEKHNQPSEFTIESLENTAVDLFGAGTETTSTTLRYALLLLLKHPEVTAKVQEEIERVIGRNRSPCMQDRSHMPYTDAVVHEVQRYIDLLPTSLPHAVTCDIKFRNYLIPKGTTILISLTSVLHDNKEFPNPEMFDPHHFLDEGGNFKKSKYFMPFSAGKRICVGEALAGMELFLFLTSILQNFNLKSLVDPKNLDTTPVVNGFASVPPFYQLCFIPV

[4] = system: H9c2; test: cells; assay type: functional, cell-based; conditions: Rattus norvegicus, H9c2, Myocardium;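 note: confirmatory concentration-response retest of ultra-high-throughput screening hits for modulation of myocardial damage; cell death induced by hydrogen peroxide oxidative stress; compound pretreatment for 60 min then peroxide exposure for 2 h; potency is for protecting the cells against peroxide damage rather than for killing them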
[5] = target: T1, Rac GTPase-activating protein 1 (Homo sapiens, UniProt Q9H0H5); test: MgcRacGAP GTPase-activating activity inhibitors, confirmation, biochemical, ADP Hunter fluorescence, primary and confirmatory (AID 624330); assay type: functional
T1 sequence (Q9H0H5 whole entry): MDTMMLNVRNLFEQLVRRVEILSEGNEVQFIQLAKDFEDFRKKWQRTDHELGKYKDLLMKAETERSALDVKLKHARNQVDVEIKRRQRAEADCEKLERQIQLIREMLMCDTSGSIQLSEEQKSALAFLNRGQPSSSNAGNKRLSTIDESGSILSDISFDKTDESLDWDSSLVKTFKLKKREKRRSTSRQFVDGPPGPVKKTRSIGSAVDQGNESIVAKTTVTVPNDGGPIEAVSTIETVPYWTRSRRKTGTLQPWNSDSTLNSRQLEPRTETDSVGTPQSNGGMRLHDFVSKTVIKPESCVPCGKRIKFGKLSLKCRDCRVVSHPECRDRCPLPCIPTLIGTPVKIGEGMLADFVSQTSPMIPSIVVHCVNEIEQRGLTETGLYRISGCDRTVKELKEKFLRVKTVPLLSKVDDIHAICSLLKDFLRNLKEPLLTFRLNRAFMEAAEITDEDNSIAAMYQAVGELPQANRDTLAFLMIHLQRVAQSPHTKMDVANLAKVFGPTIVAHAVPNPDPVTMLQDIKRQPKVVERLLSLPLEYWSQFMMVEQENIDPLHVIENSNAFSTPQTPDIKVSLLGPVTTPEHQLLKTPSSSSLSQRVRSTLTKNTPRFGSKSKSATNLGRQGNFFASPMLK

[6] = target: T2, Cytochrome P450 1A2 (Homo sapiens, UniProt P05177);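 note: PubChem cytochrome P450 panel assay, CYP1A2 panel member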
T2 sequence (P05177 whole entry): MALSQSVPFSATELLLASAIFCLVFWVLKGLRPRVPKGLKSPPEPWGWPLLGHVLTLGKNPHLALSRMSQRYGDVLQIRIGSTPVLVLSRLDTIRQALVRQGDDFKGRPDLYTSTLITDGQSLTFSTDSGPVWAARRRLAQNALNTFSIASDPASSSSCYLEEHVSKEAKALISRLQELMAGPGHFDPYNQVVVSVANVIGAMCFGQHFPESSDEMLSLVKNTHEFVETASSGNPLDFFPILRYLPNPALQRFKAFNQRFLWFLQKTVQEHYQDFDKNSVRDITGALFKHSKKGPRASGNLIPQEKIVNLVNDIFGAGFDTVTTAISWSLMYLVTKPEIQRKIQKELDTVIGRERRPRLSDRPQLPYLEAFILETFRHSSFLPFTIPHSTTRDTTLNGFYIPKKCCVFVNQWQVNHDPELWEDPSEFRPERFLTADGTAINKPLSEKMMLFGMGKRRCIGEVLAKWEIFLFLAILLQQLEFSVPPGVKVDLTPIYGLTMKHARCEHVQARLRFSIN

[7] = system: Streptococcus sp. 'group A'; test: growth inhibition of control SK(-) GAS strain, dose response, counter-screen for streptokinase expression inhibitor project, luminescence, kanamycin, BacTiterGlo, confirmation (AID 1900); assay type: functional, organism-based
[8] = system: Streptococcus; test: Group A Streptococcus viability loss, dose response, counter-screen for streptokinase expression inhibitor project, luminescence, BacTiterGlo (AID 1915); assay type: functional, organism-based;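 note: potency for reduction of bacterial viability or growth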
[9] = Luminescence Cell-Based Dose Retest to Confirm Inhibitors of Cancer Stem Cells. [Related pubchem assays (depositor defined):AID2717, AID2721]; assay type: functional; conditions: Homo sapiens

Cytochrome P450 3A4, sequence (P08684 whole entry): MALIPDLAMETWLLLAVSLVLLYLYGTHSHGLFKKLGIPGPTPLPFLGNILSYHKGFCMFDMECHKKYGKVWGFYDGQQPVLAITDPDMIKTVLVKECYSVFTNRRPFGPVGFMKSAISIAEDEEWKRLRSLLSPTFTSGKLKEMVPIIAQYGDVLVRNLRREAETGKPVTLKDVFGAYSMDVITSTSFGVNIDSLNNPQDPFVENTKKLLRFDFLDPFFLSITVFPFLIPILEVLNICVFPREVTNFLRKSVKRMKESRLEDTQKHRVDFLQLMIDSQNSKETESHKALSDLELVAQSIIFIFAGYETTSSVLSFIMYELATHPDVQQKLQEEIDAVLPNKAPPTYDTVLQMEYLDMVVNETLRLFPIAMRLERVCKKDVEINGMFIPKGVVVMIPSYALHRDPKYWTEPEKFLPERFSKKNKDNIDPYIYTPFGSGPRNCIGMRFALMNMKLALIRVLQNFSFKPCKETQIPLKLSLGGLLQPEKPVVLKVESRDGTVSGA

SMILES: NCC#Cc1ccccc1
AC50 [1]: 15.8 µM (inconclusive)

SMILES: COc1ccc(-c2csc(NC(=O)CCCc3nc(O)c4ccccc4n3)n2)cc1OC
IC50 [4]: > 79 µM (inactive)

SMILES: CC(=O)c1ccc(NC(S)=Nc2ccc(Br)c(Cl)c2)cc1
EC50 [7]: 7.95 µM (active) | EC50 [8]: 8.74 µM (active)

SMILES: NS(=O)(=O)c1ccc(NC(=O)Nc2cccc3ccccc23)cc1
AC50 [6]: 1 µM (inconclusive)

SMILES: COc1ccc(CNn2c(-c3cccs3)nc3ccccc3c2=O)cc1OC
IC50 [4]: 8.92 µM (active)

SMILES: COC(=O)C(C)N=C(S)N1CCN(c2c(F)cc3c(=O)c(C(=O)O)cn(C4CC4)c3c2OC)CC1C (centres undefined)
EC50 [7]: 2.85 µM (active) | EC50 [8]: 4.39 µM (active)

SMILES: CC(=O)O/C(=C1/C[C@H]2[C@@H]3CC=C4C[C@@H](OC(C)=O)CC[C@]4(C)[C@@H]3CC[C@]2(C)C1=O)C(F)(F)F
AC50 [6]: 5.01 µM (inconclusive) | AC50 [3]: 3.16 µM (inconclusive)

SMILES: COc1ccc(-c2cc(-c3nnc(COC(=O)C4CC4C)o3)c3ccccc3n2)cc1OC (centres undefined)
IC50 [4]: 8.29 µM (active)

SMILES: CCOC(=O)Cc1csc(SCc2cc(=O)oc3cc(O)ccc23)n1
IC50 [4]: > 79 µM (inactive)

SMILES: O=C(CSc1nc(O)c2ccccc2n1)c1ccccc1
IC50 [4]: > 79 µM (inactive)

SMILES: NCCSC(c1ccccc1)c1ccccc1
AC50 [6]: 1.58 µM (inconclusive) | AC50 [1]: 3.16 µM (inconclusive)

SMILES: CCOC(=O)CSc1nc(O)c2c(C)c(C)sc2n1
IC50 [4]: 10.2 µM (active)

SMILES: COC(=O)Nc1nc2cc(-c3nnc(O)c4ccccc34)ccc2[nH]1
AC50 [9]: 11.2 µM (active)

SMILES: CC(=O)c1ccccc1OCCCN1CCCCC1
IC50 [4]: > 79 µM (inactive)

SMILES: COc1ccc(-n2nc(C(=O)NCC(=O)Nc3cc(OC)c(OC)c(OC)c3)c3ccccc3c2=O)cc1Cl
IC50 [4]: > 79 µM (inactive)

SMILES: COc1ccccc1NC(=O)c1ccc(NC(=O)Cc2nnc(O)c3ccccc23)cc1
IC50 [4]: > 79 µM (inactive)

SMILES: COC(=O)c1sccc1NC(=O)CN(C)NS(=O)(=O)c1ccc(F)cc1
AC50 [3]: 28.2 µM (inconclusive)

SMILES: CC1=C2[C@@H]3OC(=O)[C@@H](C)[C@@H]3CC[C@]2(C)C=CC1=O
AC50 [6]: 10 µM (inconclusive)

SMILES: CN(CC(=O)Nc1ccccc1Cl)C(=O)CCc1nc(O)c2ccccc2n1
IC50 [4]: 23.8 µM (active)

SMILES: COc1cc(OC)cc(-c2sc3ccc(OC)cc3c2-c2ccc3cc[nH]c3c2)c1
AC50 [9]: 1.87 µM (active)

SMILES: COc1cc(-c2nnc(-c3cc(-c4ccccc4)nc4ccccc34)o2)cc(OC)c1OC
IC50 [4]: 10.5 µM (active)

SMILES: CC(=O)Nc1cccc(/C(C)=N/NC(=O)c2cccs2)c1
IC50 [4]: > 79 µM (inactive)

SMILES: O=C(CNC(=O)c1cccc(F)c1)N/N=C/c1cc(Br)ccc1OC(=O)/C=C/c1ccco1
IC50 [4]: > 79 µM (inactive)

SMILES: Cc1cccc(/N=C/c2c(O)ccc3oc4c(c23)CCCC4)n1
IC50 [4]: > 79 µM (inactive)

SMILES: COc1cc(/C=N\NC(=O)c2cccnc2)ccc1OC(=O)c1ccccc1Cl
IC50 [4]: > 79 µM (inactive)

SMILES: COc1cc(/C=N/NC(=O)C2(O)c3ccccc3-c3ccccc32)ccc1O
IC50 [5]: 47.6 µM (active)

SMILES: COc1ccc(N/N=C(/C(C)=O)N2CCCc3ccccc32)cc1
AC50 [9]: 1.58 µM (active)

SMILES: Cc1ccc(N/N=C/c2cccnc2)cc1
AC50 [9]: 4.39 µM (active)

SMILES: O=C(/C(=N/Nc1cccc(C(F)(F)F)c1)C(=O)C(F)(F)F)c1cccs1
AC50 [9]: 1.76 µM (active)

SMILES: COc1ccc(OC)c(-c2nnc3n2N=C(c2ccc(OC(F)F)c(OCC4CC4)c2)CS3)c1
AC50 [9]: 7.23 µM (active)

SMILES: CN(C)CCC=C1c2ccccc2CCc2ccccc21 [AMITRIPTYLINE]
AC50 [6]: 15.8 µM (inconclusive)

The remaining lines, values ahead:

AC50 [2]: 39.8 µM (inconclusive) | AC50 [1]: 17.8 µM (inconclusive)
SMILES: CCCOc1ccc(C2C(=O)N(C3CCCCC3)CC(=O)N2C2CC2)cc1OC (centres undefined)

AC50 [3]: 7.94 µM (inconclusive) | AC50 [2]: 39.8 µM (inconclusive) | AC50 [1]: 25.1 µM (inconclusive)
SMILES: CS(=O)(=O)Nc1ccc(C(=O)N2CCN(c3ccccc3)CC2)cc1

IC50 [5]: 198 µM (active)
SMILES: COc1ccc(NC2CCCN(C(=O)c3ccccc3N3CCOCC3)C2)cc1OC (centres undefined)

AC50 [6]: 20 µM (inconclusive)
SMILES: COC(=O)[C@@]1(Cc2ccc(F)cc2)[C@H]2c3cc(C(=O)N4CCCC4)n(CCc4ccc(O)c(O)c4)c3C[C@H]2CN1C(=O)c1ccccc1

AC50 [3]: 10 µM (inconclusive)
SMILES: CCCC(=O)Nc1cccc(Oc2nc(C)cc(C)c2C#N)c1

AC50 [6]: 0.0794 µM (inconclusive) | AC50 [2]: 6.31 µM (inconclusive)
SMILES: O=C(c1c[nH]c(=O)n(-c2ccccc2)c1=O)N1CCc2ccccc21

AC50 [3]: 20 µM (inconclusive)
SMILES: O=c1oc2c(CN3CCOCC3)c(O)ccc2c2ccccc12

AC50 [2]: 3.55 µM (inconclusive) | AC50 [1]: 0.631 µM (inconclusive)
SMILES: CCn1c(=O)c2c(=O)cc(O)oc2c2ccccc21

AC50 [6]: 0.126 µM (inconclusive)
SMILES: COC(=O)c1nnn(Cc2ccccc2)c1N

AC50 [3]: 3.16 µM (inconclusive) | AC50 [1]: 3.16 µM (inconclusive)
SMILES: O=C(C[N+]12CN3CN(CN(C3)C1)C2)c1ccc(-c2ccccc2)cc1

AC50 [6]: 5.01 µM (inconclusive)
SMILES: O=C(Nc1ccccc1C(=O)O)c1ccc2ccccc2n1

AC50 [6]: 20 µM (inconclusive)
SMILES: CCNc1ncc2nc(-c3ccc(F)cc3)c(=O)n(Cc3ccc(F)cc3)c2n1

AC50 [3]: 39.8 µM (inconclusive)
SMILES: COc1cc(CNC(C)(C)CO)ccc1OCC(=O)Nc1ccc(Br)cc1

AC50 [1]: 15.8 µM (inconclusive)
SMILES: CCOC(=O)c1cccc(NC(=O)COc2ccc([N+](=O)[O-])cc2)c1

AC50 [1]: 31.6 µM (inconclusive)
SMILES: O=c1cnc2cnc(Nc3ccccc3)nc2n1C[C@H]1CCCO1

IC50 [5]: 100 µM (active)
SMILES: CCn1c2ccccc2c2cc(NC(=O)CNC)ccc21

AC50 [6]: 15.8 µM (inconclusive) | AC50 [2]: 14.1 µM (inconclusive) | AC50 [1]: 39.8 µM (inconclusive)
SMILES: O=C(Cn1ccc([N+](=O)[O-])n1)NCc1cccs1

AC50 [6]: 25.1 µM (inconclusive)
SMILES: CC(=O)NCCNc1cc(-c2ccccc2C(F)(F)F)ncn1

AC50 [3]: 15.8 µM (inconclusive) | AC50 [2]: 31.6 µM (inconclusive)
SMILES: Cn1cc(-c2nc3cncnc3n(CCN)c2=O)c2ccccc21

AC50 [6]: 20 µM (inconclusive) | AC50 [2]: 20 µM (inconclusive)
SMILES: COC(=O)c1ccc(C#CC(NP(=O)(c2ccccc2)c2ccccc2)c2ccccc2)cc1 (centres undefined)

AC50 [6]: 3.55 µM (inconclusive) | AC50 [3]: 0.0631 µM (inconclusive)
SMILES: COc1ccccc1NC(=O)CSc1nc2ccccc2cc1Cc1ccccc1

IC50 [5]: 134 µM (active)
SMILES: Brc1cccc(OCCN2CCOCC2)c1

AC50 [3]: 8.91 µM (inconclusive) | AC50 [1]: 3.55 µM (inconclusive)
SMILES: Cc1ccc(COn2c(-c3ccc(Cl)cc3)nc3ccc([N+](=O)[O-])cc32)cc1

AC50 [6]: 6.31 µM (inconclusive) | AC50 [1]: 2 µM (inconclusive)
SMILES: COCCn1c(=O)c(-c2ccc(OC)cc2)nc2cnc(Oc3cccc(Cl)c3)nc21

AC50 [6]: 6.31 µM (inconclusive) | AC50 [3]: 20 µM (inconclusive)
SMILES: N=c1sccn1CC(=O)Nc1cccc(Oc2ccccc2)c1

AC50 [3]: 20 µM (inconclusive)
SMILES: O=C(NCc1cccnc1)C1COc2ccccc2O1 (centres undefined)

AC50 [1]: 25.1 µM (inconclusive)
SMILES: C=CC(C)(C)c1[nH]c2ccccc2c1C1=C(O)C(O)=C(c2c[nH]c3c(CC=C(C)C)cccc23)C(=O)C1=O

IC50 [5]: 63.7 µM (active)
SMILES: O=C(CNC(=O)c1cccs1)N/N=C/c1ccc(O)cc1O

AC50 [3]: 0.794 µM (inconclusive)
SMILES: COc1ccc(CNc2ncnc3ccc(-c4ccccc4C#N)cc23)c(OC)c1

AC50 [6]: 12.6 µM (inconclusive)
SMILES: CS(=O)(=O)Nc1ccc([N+](=O)[O-])cc1Oc1ccccc1 [NIMESULIDE]
